Test system: sugarcane plantlet, cultivar CPO-1372
Conditions: in vivo
Protocol: Wax paper containers were cut into 4 cm and 7 cm lengths. One open end of each container was secured with either a 38 um thick LDL film, prepared as described in Example 25, or a 254 um thick soybean oil gel film. The latter was prepared by dissolving Kraton® A1535 poly(styrene-b-ethylene-co-butylene-co-styrene-b-styrene) triblock polymer in soybean oil (MP Biomedicals, Solon, Ohio) at 9 wt. % and 155° C., and casting the hot solution on a glass substrate using a doctor blade with a 5 cm wide and 254 um thick gap, preheated to 155° C. Upon cooling to room temperature, the physical gelation of the triblock polymer in the oil yielded a solid, but highly deformable film. LDL film was affixed to the wax paper container using a thin layer of cyanoacrylate adhesive (Sigma-Aldrich, St. Louis, Mo.). Soybean oil gel film was affixed by heating the film, still adhered to the glass substrate, to near its sol-gel transition (approximately 80° C.), pressing the end of the wax-paper container into the softened film, and cooling to room temperature to re-solidify the film.
The 4 and 7 cm wax paper containers, having their bottom ends secured with LDL or soybean oil gel film, were then loaded approximately one-third full with dry Metro-Mix® 360 growing media. One regenerated sugarcane plantlet was then added to each container. […]

## poly(lactide-b-dimethylsiloxane-b-lactide) [LDL]
  discoloration of plantlet shoots in contact with the closure (phytotoxicity): no discoloration

— patent US20130174483A1, “PLANT ARTIFICIAL SEEDS AND METHODS FOR THE PRODUCTION THEREOF” (E I DU PONT DE NEMOURS AND COMPANY, priority 2011, published 2013)
